Test results published in US20240317744A1, “Bicyclic Ureas As Kinase Inhibitors” (Incyte Corporation, priority 2023, published 2024).
pIC50: −log10 of the molar value.

Legend:
[1] = target: T1, pseudo-kinase domain (JH2, amino-acids 536-812) of human Wild Type JAK2 (Homo sapiens, UniProt O60674, F794H/W659A/W777A); test: JAK2 LanthaScreen JH2-WT Binding Assay; settings: JAK2 JH2-WT 0.145 nM, 50 nM tracer, 1 hour at 25° C.; read-out: JH2 BIND WT
T1 construct: pseudo-kinase domain (JH2, amino-acids 536-812 with 3 surface mutations W659A, W777A, F794H); His (C); purchased BPS Bioscience 79463; host or cells: baculovirus expression system
Method in brief: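 TR-FRET tracer displacement: 0.145 nM biotinylated JH2 protein, 50 nM fluorescent tracer, 0.25 nM streptavidin-Tb, compound dilution series; 50 mM Tris pH 7.5, 10 mM MgCl2, 5 mM DTT; 1 h, 25° C. Non-specific binding with 2 mM ATP. IC50 by 4-parameter fit.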

[2] = target: T2, catalytic domain (JH1, amino acids 826-1132) of human JAK2 (Homo sapiens, UniProt O60674); test: JAK2 LanthaScreen JH1 Binding Assay; settings: JAK2 JH1 1.5 nM, 50 nM tracer, 2 hours at 25° C.; read-out: JH1 BIND
T2 construct: catalytic domain (JH1, amino acids 826-1132) of human JAK2; FLAG (N); biotin (biotinylated); purchased Carna Biosciences 08-445-20N; host or cells: baculovirus expression system
Method in brief: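 TR-FRET tracer-displacement format: compound IC50 from four-parameter curves after 2 h at 25° C. Reaction held 1.5 nM biotinylated, FLAG-tagged JH1 (aa 826-1132), 50 nM tracer, 0.5 nM Streptavidin-Tb, pH 7.5 Tris buffer; 2 mM ATP set nonspecific background.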

[3] = target: T3, pseudo-kinase domain (JH2, amino-acids 536-812) of human V617F mutant JAK2 (Homo sapiens, UniProt O60674, F794H/V617F/W659A/W777A); test: JAK2 LanthaScreen JH2-V617F Binding Assay; settings: JAK2 JH2-V617F 0.26 nM, 50 nM tracer, 1 hour at 25° C.; read-out: JH2 BIND V617F
T3 construct: pseudo-kinase domain (JH2, amino-acids 536-812 with 3 surface mutations W659A, W777A, F794H); His (C); purchased BPS Bioscience 79498; host or cells: baculovirus expression system
Method in brief: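 TR-FRET tracer displacement: 0.26 nM protein, 50 nM tracer, 0.25 nM SA-Tb, 50 mM Tris pH 7.5, 10 mM MgCl2, 5 mM DTT; 1 h, 25° C. NSB = 2 mM ATP. IC50, 4-parameter curve.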

[4] = target: catalytic domain (JH1, amino acids 808-1132) of human JAK2 (Homo sapiens, UniProt O60674); test: JAK2 HTRF Enzyme Activity Assay; format: biochemical; settings: ATP 30 µM, 60 minutes at 25° C.; read-out: V617F ENZ 30 UM
Chain of catalytic domain (JH1, amino acids 808-1132) of human JAK2 (O60674 808-1132 limits assumed): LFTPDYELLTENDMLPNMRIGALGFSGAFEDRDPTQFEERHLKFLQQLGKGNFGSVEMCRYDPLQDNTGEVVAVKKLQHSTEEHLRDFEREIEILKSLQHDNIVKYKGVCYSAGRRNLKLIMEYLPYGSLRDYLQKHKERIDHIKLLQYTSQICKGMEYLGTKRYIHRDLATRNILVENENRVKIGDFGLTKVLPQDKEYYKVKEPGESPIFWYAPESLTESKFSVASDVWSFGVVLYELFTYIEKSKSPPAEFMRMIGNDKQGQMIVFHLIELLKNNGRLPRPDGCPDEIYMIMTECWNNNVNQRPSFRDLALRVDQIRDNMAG

T2 sequence (O60674 826-1132): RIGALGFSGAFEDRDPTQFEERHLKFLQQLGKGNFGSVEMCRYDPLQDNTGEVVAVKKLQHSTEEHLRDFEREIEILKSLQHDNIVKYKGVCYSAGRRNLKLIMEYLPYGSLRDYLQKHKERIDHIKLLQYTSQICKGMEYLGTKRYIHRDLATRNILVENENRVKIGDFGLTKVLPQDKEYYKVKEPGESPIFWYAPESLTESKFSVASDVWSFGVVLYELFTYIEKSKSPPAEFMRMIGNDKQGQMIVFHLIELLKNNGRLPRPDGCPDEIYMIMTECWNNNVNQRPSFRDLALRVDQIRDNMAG
T3 sequence (O60674 536-812 V617F/W659A/W777A/F794H): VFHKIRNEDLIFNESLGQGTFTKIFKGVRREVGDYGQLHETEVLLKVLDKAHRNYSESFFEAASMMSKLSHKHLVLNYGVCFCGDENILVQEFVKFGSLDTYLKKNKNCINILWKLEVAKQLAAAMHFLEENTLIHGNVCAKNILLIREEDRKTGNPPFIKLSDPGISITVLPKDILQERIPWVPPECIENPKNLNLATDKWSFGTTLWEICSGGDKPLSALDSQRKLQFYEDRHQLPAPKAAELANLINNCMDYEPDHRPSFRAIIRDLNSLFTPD
T1 sequence (O60674 536-812 W659A/W777A/F794H): as the sequence (O60674 536-812 V617F/W659A/W777A/F794H) above, with F82V counted along it

Row | Compound | pIC50 [1] | pIC50 [2] | pIC50 [3] | pIC50 [4]
1 | [2H]C([2H])([2H])n1c(=O)n([C@@H]2CC[C@@H](NC(=O)OC)C2)c2cc(Nc3cc(CN4CC[C@H](F)C4)cc(-c4ccc5c(c4)OCCO5)n3)ncc21 [Example 70, Methyl ((1R,3R)-3-(6-((6-(2,3-dihydrobenzo[b][1,4]dioxin-6-yl)-4-(((S)-3-fluoropyrrolidin-1-yl)methyl)pyridin-2-yl)amino)-3-(methyl-d3)-2-oxo-2,3-dihydro-1H-imidazo[4,5-c]pyridin-1-yl)cyclopentyl)carbamate] | ≥ 8.00 | < 6.00 | ≥ 8.00 | < 6.00
2 | COC(=O)N[C@@H]1CC[C@@H](n2c(=O)n(C)c3cnc(Nc4ccc(F)c(-c5ccc(CC#N)cc5)n4)cc32)C1 [Example 71, Methyl ((1R,3R)-3-(6-((6-(4-(cyanomethyl)phenyl)-5-fluoropyridin-2-yl)amino)-3-methyl-2-oxo-2,3-dihydro-1H-imidazo[4,5-c]pyridin-1-yl)cyclopentyl)carbamate] | ≥ 8.00 | < 6.00 | ≥ 8.00 | < 6.00
3 | COC(=O)N[C@@H]1CC[C@@H](n2c(=O)n(C)c3cnc(Nc4ccc(F)c(-c5ccc(C6CC6)cc5)n4)cc32)C1 [Example 72, Methyl ((1R,3R)-3-(6-((6-(4-cyclopropylphenyl)-5-fluoropyridin-2-yl)amino)-3-methyl-2-oxo-2,3-dihydro-1H-imidazo[4,5-c]pyridin-1-yl)cyclopentyl)carbamate] | ≥ 8.00 | < 6.00 | 7.00 to 8.00 | < 6.00
4 | COC(=O)N[C@@H]1CC[C@@H](n2c(=O)n(C)c3cnc(Nc4ccc(F)c(-c5ccc(OC(F)(F)F)cc5)n4)cc32)C1 [Example 73, Methyl ((1R,3R)-3-(6-((5-fluoro-6-(4-(trifluoromethoxy)phenyl)pyridin-2-yl)amino)-3-methyl-2-oxo-2,3-dihydro-1H-imidazo[4,5-c]pyridin-1-yl)cyclopentyl)carbamate] | 7.00 to 8.00 | < 6.00 | 7.00 to 8.00 | < 6.00
5 | [2H]C([2H])([2H])n1c(=O)n([C@@H]2CC[C@@H](NC(=O)OC)C2)c2cc(Nc3cc(CN4CCOCC4)cc(-c4ccc5c(c4)OCCO5)n3)ncc21 [Example 74, Methyl ((1R,3R)-3-(6-((6-(2,3-dihydrobenzo[b][1,4]dioxin-6-yl)-4-(morpholinomethyl)pyridin-2-yl)amino)-3-(methyl-d3)-2-oxo-2,3-dihydro-1H-imidazo[4,5-c]pyridin-1-yl)cyclopentyl)carbamate] | ≥ 8.00 | < 6.00 | ≥ 8.00 | < 6.00
6 | [2H]C([2H])([2H])n1c(=O)n([C@@H]2CC[C@@H](NC(=O)OC)C2)c2cc(Nc3ccnc(-c4ccnc(OC)c4)n3)ncc21 [Example 75, Methyl ((1R,3R)-3-(6-((2-(2-methoxypyridin-4-yl)pyrimidin-4-yl)amino)-3-(methyl-d3)-2-oxo-2,3-dihydro-1H-imidazo[4,5-c]pyridin-1-yl)cyclopentyl)carbamate] | ≥ 8.00 | < 6.00 | ≥ 8.00 | < 6.00
7 | [2H]C([2H])([2H])n1c(=O)n([C@@H]2CC[C@@H](NC(=O)OC)C2)c2cc(Nc3cc(C(=O)N4CCN5CCCCC5C4)cc(-c4ccc5c(c4)OCCO5)n3)ncc21 (stereo partly drawn) [Example 76, Methyl ((1R,3R)-3-(6-((6-(2,3-dihydrobenzo[b][1,4]dioxin-6-yl)-4-(octahydro-2H-pyrido[1,2-a]pyrazine-2-carbonyl)pyridin-2-yl)amino)-3-(methyl-d3)-2-oxo-2,3-dihydro-1H-imidazo[4,5-c]pyridin-1-yl)cyclopentyl)carbamate] | ≥ 8.00 | < 6.00 | ≥ 8.00 | < 6.00
8 | COC(=O)N[C@@H]1CC[C@@H](n2c(=O)n(C)c3cnc(Nc4ccnc(N5CCC6(CC6)C5)n4)cc32)C1 [Example 77, Methyl ((1R,3R)-3-(6-((2-(5-azaspiro[2.4]heptan-5-yl)pyrimidin-4-yl)amino)-3-methyl-2-oxo-2,3-dihydro-1H-imidazo[4,5-c]pyridin-1-yl)cyclopentyl)carbamate] | ≥ 8.00 | < 6.00 | ≥ 8.00 | < 6.00
9 | COC(=O)N[C@@H]1CC[C@@H](n2c(=O)n(C)c3cnc(Nc4ccnc(N5CCC(F)(F)C5)n4)cc32)C1 [Example 78, Methyl ((1R,3R)-3-(6-((2-(3,3-difluoropyrrolidin-1-yl)pyrimidin-4-yl)amino)-3-methyl-2-oxo-2,3-dihydro-1H-imidazo[4,5-c]pyridin-1-yl)cyclopentyl)carbamate] | ≥ 8.00 | < 6.00 | ≥ 8.00 | < 6.00
10 | COC(=O)N[C@@H]1CC[C@@H](n2c(=O)n(C)c3cnc(Nc4ccnc(N5CCC(C(F)(F)F)CC5)n4)cc32)C1 [Example 79, Methyl ((1R,3R)-3-(3-methyl-2-oxo-6-((2-(4-(trifluoromethyl)piperidin-1-yl)pyrimidin-4-yl)amino)-2,3-dihydro-1H-imidazo[4,5-c]pyridin-1-yl)cyclopentyl)carbamate] | ≥ 8.00 | < 6.00 | ≥ 8.00 | < 6.00
11 | [2H]C([2H])([2H])n1c(=O)n([C@@H]2CC[C@@H](NC(=O)OC)C2)c2cc(Nc3cc(C(=O)N4CC[C@@H](F)C4)cc(-c4ccc5c(c4)OCCO5)n3)ncc21 [Example 80, Methyl ((1R,3R)-3-(6-((6-(2,3-dihydrobenzo[b][1,4]dioxin-6-yl)-4-((R)-3-fluoropyrrolidine-1-carbonyl)pyridin-2-yl)amino)-3-(methyl-d3)-2-oxo-2,3-dihydro-1H-imidazo[4,5-c]pyridin-1-yl)cyclopentyl)carbamate] | ≥ 8.00 | < 6.00 | ≥ 8.00 | < 6.00
12 | COC(=O)N[C@@H]1CC[C@@H](n2c(=O)n(C)c3cnc(Nc4ccn(-c5ccncc5)n4)cc32)C1 [Example 81, Methyl ((1R,3R)-3-(3-methyl-2-oxo-6-((1-(pyridin-4-yl)-1H-pyrazol-3-yl)amino)-2,3-dihydro-1H-imidazo[4,5-c]pyridin-1-yl)cyclopentyl)carbamate] | 6.30 to 7.00 | < 6.00 | 6.30 to 7.00 | < 6.00
13 | [2H]C([2H])([2H])n1c(=O)n([C@@H]2CC[C@@H](NC(=O)OC)C2)c2cc(Nc3cc(C(=O)N4CCOCC4)cc(-c4ccc5c(c4)OCCO5)n3)ncc21 [Example 82, Methyl ((1R,3R)-3-(6-((6-(2,3-dihydrobenzo[b][1,4]dioxin-6-yl)-4-(morpholine-4-carbonyl)pyridin-2-yl)amino)-3-(methyl-d3)-2-oxo-2,3-dihydro-1H-imidazo[4,5-c]pyridin-1-yl)cyclopentyl)carbamate] | ≥ 8.00 | < 6.00 | ≥ 8.00 | < 6.00
14 | COC(=O)N[C@@H]1CC[C@@H](n2c(=O)n(C)c3cnc(Nc4ccnc(NC5CCC(F)(F)C5)n4)cc32)C1 (stereo partly drawn) [Example 83, Methyl ((1R,3R)-3-(6-((2-((3,3-difluorocyclopentyl)amino)pyrimidin-4-yl)amino)-3-methyl-2-oxo-2,3-dihydro-1H-imidazo[4,5-c]pyridin-1-yl)cyclopentyl)carbamate] | ≥ 8.00 | < 6.00 | 7.00 to 8.00 | < 6.00
15 | COC(=O)N[C@@H]1CC[C@@H](n2c(=O)n(C)c3cnc(Nc4cc(C)nc(N5CCC(F)(F)C5)n4)cc32)C1 [Example 84, Methyl ((1R,3R)-3-(6-((2-(3,3-difluoropyrrolidin-1-yl)-6-methylpyrimidin-4-yl)amino)-3-methyl-2-oxo-2,3-dihydro-1H-imidazo[4,5-c]pyridin-1-yl)cyclopentyl)carbamate] | ≥ 8.00 | < 6.00 | ≥ 8.00 | < 6.00
16 | COC(=O)N[C@@H]1CC[C@@H](n2c(=O)n(C)c3cnc(Nc4ccnc(NC5CCOCC5)n4)cc32)C1 [Example 85, Methyl ((1R,3R)-3-(3-methyl-2-oxo-6-((2-((tetrahydro-2H-pyran-4-yl)amino)pyrimidin-4-yl)amino)-2,3-dihydro-1H-imidazo[4,5-c]pyridin-1-yl)cyclopentyl)carbamate] | 7.00 to 8.00 | < 6.00 | 7.00 to 8.00 | < 6.00
